Data reported in patent US20170000133A1, “BENZOXABOROLE FUNGICIDES” (SYNGENTA PARTICIPATIONS AG, priority 2013, published 2017).

Legend:
[1] = system: Mycosphaerella arachidis (Cercospora arachidicola); assay: Mycosphaerella arachidis (Cercospora arachidicola) / liquid culture (early leaf spot); assay type: cell-based; settings: PDB potato dextrose broth, 24° C., 4-5 days after application, read-out: disease control (inhibition of growth determined photometrically)
Method in brief: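 Conidia from cryogenic storage mixed into potato dextrose broth and added to compound at 200 ppm in DMSO. Incubation at 24° C.; growth inhibition read photometrically 4-5 days after application.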

[2] = system: Glomerella lagenarium (Colletotrichum lagenarium); assay: Glomerella lagenarium (Colletotrichum lagenarium) / liquid culture (anthracnose); assay type: cell-based; settings: Colletotrichum orbiculare, PDB potato dextrose broth, 24° C., 3-4 days after application, read-out: disease control (inhibition of growth measured photometrically)
Method in brief: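 Conidia of G. lagenarium from cryogenic storage were suspended in potato dextrose broth and added to test compound in DMSO at 200 ppm. Plates were incubated at 24° C, and growth inhibition was read photometrically 3-4 days after application.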

Pythium ultimum = Pythium ultimum / liquid culture (seedling damping off); assay type: cell-based; settings: Globisporangium ultimum; 200 ppm; potato dextrose broth, 24° C., 2-3 days after application; read-out: disease control (inhibition of growth determined photometrically)
[3] = system: Mycosphaerella graminicola (Septoria tritici); assay: Mycosphaerella graminicola (Septoria tritici) / liquid culture (Septoria blotch); assay type: cell-based; settings: Zymoseptoria tritici, PDB potato dextrose broth, 24° C., 4-5 days after application, read-out: disease control (inhibition of growth determined photometrically)
Method in brief: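 Conidia from cryostorage were suspended in potato dextrose broth and added to test compound in DMSO at 200 ppm in microtiter wells. Plates were incubated at 24° C and growth inhibition measured photometrically 4-5 days after application.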

[4] = system: Puccinia recondita f. sp. tritici; assay: Puccinia recondita f. sp. tritici / wheat / leaf disc curative (brown rust); assay type: in vivo; settings: foliar, 192 h, wheat leaf segments, applied one day after inoculation, assessed 8 dpi, read-out: disease control
Procedure: 4. Puccinia recondita f. sp. tritici/Wheat/Leaf Disc Curative (Brown Rust) Wheat leaf segments are placed on agar in multiwell plates (24-well format). The leaf disks are then inoculated with a spore suspension of the fungus. One day after inoculation the test solution is applied. After appropriate incubation the activity of a compound is assessed 8 dpi (days after inoculation) as curative fungicidal activity. Dose range: 200-22 ppm.

[5] = system: Thanatephorus cucumeris (Rhizoctonia solani); assay: Thanatephorus cucumeris (Rhizoctonia solani) / liquid culture (foot rot, damping-off); assay type: cell-based; settings: PDB potato dextrose broth, 24° C., 3-4 days after application, read-out: disease control (inhibition of growth determined photometrically)
Method in brief: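 Mycelial fragments from fresh liquid culture were suspended in potato dextrose broth and added to compound in DMSO at 200 ppm. After 3-4 days at 24 °C, growth inhibition was measured photometrically.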

Gaeumannomyces graminis = Gaeumannomyces graminis / liquid culture (take-all of cereals); assay type: cell-based; settings: PDB potato dextrose broth, 24° C., 4-5 days after application, read-out: disease control (inhibition of growth determined photometrically)
Method in brief: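 Cryo-stored mycelial fragments in potato dextrose broth exposed to compound in DMSO at 200 ppm. Incubated at 24 °C; growth inhibition read photometrically 4–5 days after application.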

Plasmopara viticola = assay: whole plant or invertebrate; assay type: in vivo; settings: foliar, read-out: disease control
[6] = system: Monographella nivalis (Microdochium nivale); assay: Monographella nivalis (Microdochium nivale) / liquid culture (foot rot cereals); assay type: cell-based; settings: PDB potato dextrose broth, 24° C., 4-5 days after application, read-out: disease control (inhibition of growth determined photometrically)
Fusarium culmorum = assay: microbe, parasite or virus in culture; assay type: cell-based; settings: read-out: disease control (inhibition of growth determined visually)
[7] = system: Phaeosphaeria nodorum (Septoria nodorum); assay: Phaeosphaeria nodorum (Septoria nodorum) / wheat / leaf disc preventative (glume blotch); assay type: in vivo; settings: Parastagonospora nodorum, foliar, wheat leaf segments cv Kanzler, inoculated 2 days after application, assessed 5-7 days after application, read-out: disease control
Procedure: 5. Phaeosphaeria nodorum (Septoria nodorum)/Wheat/Leaf Disc Preventative (Glume Blotch): Wheat leaf segments (cv) Kanzler were placed on agar in a 24-well plate and sprayed with formulated test compound diluted in water at an application rate of 200 ppm. The leaf disks were inoculated with a spore suspension of the fungus 2 days after application. The inoculated test leaf disks were incubated at 20° C. and 75% relative humidity under a light regime of 12/12 h (light/dark) in a climate cabinet and the activity of a compound was assessed as percent disease control compared to untreated when an appropriate level of disease damage appears in untreated check leaf disks (5-7 days after application).

[8] = system: Magnaporthe grisea (Pyricularia oryzae); assay type: in vivo; settings: 200 ppm; rice leaf segments cv. Ballila, inoculated 2 days after application, assessed 5-7 days after application
Phytophthora infestans = assay: whole plant or invertebrate; assay type: in vivo; settings: in Solanum lycopersicum, foliar, read-out: disease control
Sclerotinia sclerotiorum = Sclerotinia sclerotiorum / liquid culture (cottony rot); assay type: cell-based; settings: PDB potato dextrose broth, 24° C., 3-4 days after application, read-out: disease control (inhibition of growth determined visually)
Procedure: 18. Sclerotinia sclerotiorum/Liquid Culture (Cottony Rot): Mycelia fragments of a newly grown liquid culture of the fungus were directly mixed into nutrient broth (PDB potato dextrose broth). After placing a (DMSO) solution of the test compounds into a microtiter plate (96-well format) the nutrient broth containing the fungal material was added. The test plates were incubated at 24° C. and the inhibition of growth was determined visually 3-4 days after application.

[9] = system: Botryotinia fuckeliana (Botrytis cinerea); assay: Botryotinia fuckeliana (Botrytis cinerea) / liquid culture (gray mould); assay type: cell-based; settings: Vogels broth, 24° C., 3-4 days after application, read-out: disease control (inhibition of growth determined photometrically)
Procedure: 10. Botryotinia fuckeliana (Botrytis cinerea)/Liquid Culture (Gray Mould): Conidia of the fungus from cryogenic storage were directly mixed into nutrient broth (Vogels broth). After placing a DMSO solution of test compound into a 96-well microtiter plate at an application rate of 200 ppm, the nutrient broth containing the fungal spores was added. The test plates were incubated at 24° C. and the inhibition of growth was determined photometrically 3-4 days after application.

[10] = system: Puccinia recondita f. sp. tritici; assay: Puccinia recondita f. sp. tritici / wheat / leaf disc preventative (brown rust); assay type: in vivo; settings: foliar, wheat leaf segments cv Kanzler, inoculated 1 day after application, assessed 7-9 days after application, read-out: disease control
From the text: 3. Puccinia recondita f. sp. tritici/Wheat/Leaf Disc Preventative (Brown Rust): Wheat leaf segments cultivated variety (cv) Kanzler were placed on agar in 24-well plates and sprayed with formulated test compound diluted in water at an application rate of 200 ppm. The leaf disks were inoculated with a spore suspension of the fungus 1 day after application.

| Structure (SMILES) | inhibition at 200 ppm [1] [%] | inhibition at 200 ppm [2] [%] | inhibition at 200 ppm (Pythium ultimum) [%] | inhibition at 200 ppm [3] [%] | pest or weed control at 200 ppm [4] [%] | inhibition at 200 ppm [5] [%] | inhibition at 200 ppm (Gaeumannomyces graminis) [%] | pest or weed control at 200 ppm (Plasmopara viticola) [%] | inhibition at 200 ppm [6] [%] | inhibition at 200 ppm (Fusarium culmorum) [%] | pest or weed control at 200 ppm [7] [%] | disease control [8] | pest or weed control at 200 ppm (Phytophthora infestans) [%] | inhibition at 200 ppm (Sclerotinia sclerotiorum) [%] | inhibition at 200 ppm [9] [%] | melting point [°C] | pest or weed control at 200 ppm [10] [%] |
| --- | --- | --- | --- | --- | --- | --- | --- | --- | --- | --- | --- | --- | --- | --- | --- | --- | --- |
| O=C(OCC1CCC1)c1ccc2c(c1)B(O)OC2 [Compound 351] | ≥ 80 | ≥ 80 | ≥ 80 | ≥ 80 | ≥ 80 | ≥ 80 | ≥ 80 | ≥ 80 | ≥ 80 | ≥ 80 | ≥ 80 | – | – | – | – | – | – |
| COC(=O)c1cc2c(cc1Cl)COB2O [Compound 21] | – | – | – | – | – | – | – | – | – | – | – | at least 80% | – | – | – | – | – |
| O=C(OCC1CC1)c1cc2c(cc1Cl)COB2O [Compound 202] | ≥ 80 | ≥ 80 | ≥ 80 | ≥ 80 | – | ≥ 80 | ≥ 80 | – | ≥ 80 | ≥ 80 | ≥ 80 | – | ≥ 80 | ≥ 80 | ≥ 80 | – | – |
| O=C(OCC#Cc1ccccc1)c1cc2c(cc1Cl)COB2O [Compound 232] | ≥ 80 | ≥ 80 | ≥ 80 | ≥ 80 | – | ≥ 80 | ≥ 80 | ≥ 80 | ≥ 80 | ≥ 80 | ≥ 80 | – | – | – | – | – | – |
| O=C(OCCF)c1cc2c(cc1Cl)COB2O [Compound 233] | ≥ 80 | ≥ 80 | ≥ 80 | ≥ 80 | ≥ 80 | – | ≥ 80 | – | ≥ 80 | ≥ 80 | ≥ 80 | – | – | – | – | – | – |
| CC(C)c1ccc(NC(=O)c2cc3c(cc2Cl)COB3O)cc1 [Compound 110] | – | – | – | ≥ 80 | – | – | – | – | ≥ 80 | – | ≥ 80 | – | – | – | – | – | – |
| COC(=O)COC(=O)c1cc2c(cc1Cl)COB2O [Compound 230] | ≥ 80 | ≥ 80 | ≥ 80 | ≥ 80 | ≥ 80 | ≥ 80 | ≥ 80 | ≥ 80 | ≥ 80 | ≥ 80 | – | – | – | ≥ 80 | – | – | – |
| COC(=O)c1cc2c(cc1C)COB2O [Compound 446] | ≥ 80 | ≥ 80 | ≥ 80 | ≥ 80 | – | ≥ 80 | ≥ 80 | – | ≥ 80 | ≥ 80 | ≥ 80 | – | – | ≥ 80 | – | 136 to 138 | – |
| O=C(Nc1ccccc1C(=O)c1ccccc1)c1cc2c(cc1F)COB2O [Compound 161] | – | – | ≥ 80 | ≥ 80 | – | – | – | ≥ 80 | ≥ 80 | – | ≥ 80 | – | – | – | – | – | ≥ 80 |
| COC(=O)COC(=O)c1cc2c(cc1F)COB2O [Compound 419] | ≥ 80 | ≥ 80 | ≥ 80 | ≥ 80 | ≥ 80 | ≥ 80 | ≥ 80 | ≥ 80 | ≥ 80 | ≥ 80 | – | – | – | ≥ 80 | ≥ 80 | 112 to 114 | ≥ 80 |
| C#CCCCOC(=O)c1cc2c(cc1Cl)COB2O [Compound 208] | – | ≥ 80 | ≥ 80 | ≥ 80 | – | – | ≥ 80 | ≥ 80 | ≥ 80 | – | ≥ 80 | – | ≥ 80 | – | – | – | – |
| CCC#CCOC(=O)c1ccc2c(c1)B(O)OC2 [Compound 318] | ≥ 80 | – | ≥ 80 | ≥ 80 | – | ≥ 80 | ≥ 80 | ≥ 80 | ≥ 80 | ≥ 80 | ≥ 80 | – | – | – | ≥ 80 | – | – |
